# Assay results: US20250042925A1, “Improved Compositions and Methods for Targeting Mitochondria in Cancer Cells” (The Medical College of Wisconsin, Inc., priority 2021, published 2025)
# “Also recorded” adds a separate entry of the source.
# Experiments:
# [1] = Quantitative 19F-NMR of compound persistence in tumor, blood and liver; assay type: in vivo, mice
# Procedure: To validate ^19F-NMR as a viable detection approach, the persistence of pCF3-MMe in tumors was analyzed. KPC1242 engrafted mice were administered 1 mg/mouse pCF3-MMe starting 12 days after implantation. […] We next designed a quantitative NMR approach to measure the in vivo persistence of pCF3-MMe. First, serial dilutions of known concentrations of pCF3-MMe were prepared, and the intensity of the NMR peaks at a set scan number (n=64) was used to create a standard curve. Next, a one-phase decay least-squares fit equation was generated to calculate the amount of pCF3-MMe at each time point using the standardized scan number.
# Cells (1×10^7 cells/10 cm dish) were allowed to adhere overnight and then treated with varying concentrations of mitochondria-targeted compounds. Compounds were extracted using multiple methods and optimized for detection and quantification: A) Cells or tumors were placed in a dry ice ethanol bath followed by 80% v/v MeOH in water. Cells were placed on a dry ice ethanol bath on an orbital shaker for 20 minutes, and then cells were collected and centrifuged at 10,000×g; B) Post-treatment cells were lifted with TrypLE (Gibco, Cat #11558856) and centrifuged, then compound was extracted from the cells or tumors with 9:1 CHCl3:H2O, CH2Cl2, or 1:1 MeCN:H2O. Following extraction, solvents were evaporated using a Biotage V-10 Touch (Uppsala, Sweden), and before NMR acquisition, samples were resuspended in an equal volume of DMSO-d6.
# ^19F 1D-NMR spectra were collected on a Bruker Avance-III 500 MHz NMR spectrometer equipped with a 1H&^19F/13C/15N-TCI cryoprobe. […] To evaluate pCF3-MMe concentrations in biological samples, a standard curve was generated using pCF3-MMe concentrations of 0.25, 0.50, 0.75, 1.0, 1.25, and 1.5 mg/mL, and the resulting peak intensities were analyzed by linear regression. […]
# All animal studies were approved by the Institutional Animal Care and Use Committees at the Medical College of Wisconsin. […] Tumors were excised, and volume (length×width×depth=mm^3) was measured post-mortem using calipers. […]
# [2] = test system: KPC1242 murine pancreatic cancer; experiment: Tumor growth in KPC1242 engrafted mice; assay type: in vivo; details: 1 mg pCF3-MMe, 5 days on and 2 days off, from 17 days after engraftment
# Procedure: FIGS. 6A-6I show pCF3-MMe inhibits tumor growth with enhanced biosafety relative to MMe. C57BL/6J mice were treated with 1 mg MMe, 1 mg pCF3-MMe, 1 mg MMe, 250 μg MMe, 100 μg MMe, 50 μg MMe, or 25 μg MMe for 6 hours (FIG. 6A) or 5 days (FIG. 6D). Kaplan-Meier survival curve of mice treated for 6 hours (FIG. 6B) or 5 days (FIG. 5E), n=3-5. Numbers of mice surviving over time after a single injection (FIG. 6C) or 5 repeated doses (FIG. 6F). Significance was determined using a Mantel-Cox test (*, p<0.05; **, p<0.01). KPC1242 murine pancreatic cancer engrafted mice were treated with 1 mg pCF3-MMe or vehicle 5 days on and 2 days off (FIG. 6G). […] Tumor volume was measured ex vivo from vehicle and pCF3-MMe-treated mice (FIG. 6I). […] Significant differences were determined by Student's t-test (*, p<0.05).
# Given the strong safety shown from a single injection, further studies were conducted to determine if mice tolerated repeated injection using our published treatment schedule by injecting non-tumor-bearing mice daily for 5 consecutive days with doses ranging from as little as 25 μg/mouse to as much as 1 mg/mouse 20 (FIG. 6D). […] Taken together, trifluoromethylation of TPP^+ improves the reproducible detection, quantitative measurement, and safety profile of TPP^+-conjugated compounds while retaining potent anti-tumor effects in vivo. […]
# [3] = test system: pancreatic, breast, and colon cancers; details: cited from earlier work
SMILES,"detection in the blood and liver ([1]; 2 hours after injection, 1 mg)",detection in the blood and liver ([1]; 6 hours after injection),"levels within the tumors ([1]; 24 hours after injection, 1 mg/mouse)",tumor size and volume [2],efficacy compared to metformin [3]
"N=C(N)NC(=N)NCCCCCCCCCC[P+](c1ccc(C(F)(F)F)cc1)(c1ccc(C(F)(F)F)cc1)c1ccc(C(F)(F)F)cc1.[Br-] [pCF3-MMe, (10-(3-carbamimidoylguanidino)decyl)tris(4-(trifluoromethyl)phenyl)phosphonium bromide]",undetectable; also recorded: not detected,barely detectable above the signal-to-noise ratio,measurable levels,significantly decreased tumor size and volume,–
"N=C(N)NC(=N)NCCCCCCCCCC[P+](c1ccccc1)(c1ccccc1)c1ccccc1.[Br-] [MMe, 10-[(carbamimidamidomethanimidoyl)amino]decyl-triphenylphosphonium bromide, reference compound]",–,–,–,–,100-1000 fold
